# Source: patent US4352885A, “Preparation of a novel NADP linked alcohol-aldehyde/ketone oxidoreductase from thermophilic anaerobic bacteria for analytical and commercial use” (Wisconsin Alumni Research Foundation, priority 1980, dated 1982)
# Legend:
# [1] = target: T1, NADP linked alcohol dehydrogenase (alcohol-aldehyde/ketone oxidoreductase) (Thermoanaerobacter brockii, UniProt P14941); test: Specific activity of partially purified NADP linked alcohol dehydrogenase with alcohols and carbonyl compounds (absorbance at 334 nm); assay type: biochemical, Thermoanaerobium brockii; details: saturating substrate (0.2-0.5 M alcohol or ketone, 10 mM acetaldehyde); 0.5 mM NADP or 0.2 mM NADPH; 0.1 M Tris-Cl pH 7.8
# T1 construct: of the T. brockii enzyme preparation with various alcohols and carbonyl compounds; made in house; host or cells: T. brockii itself (native host; partially purified enzyme)
# T1 sequence (P14941 1-352): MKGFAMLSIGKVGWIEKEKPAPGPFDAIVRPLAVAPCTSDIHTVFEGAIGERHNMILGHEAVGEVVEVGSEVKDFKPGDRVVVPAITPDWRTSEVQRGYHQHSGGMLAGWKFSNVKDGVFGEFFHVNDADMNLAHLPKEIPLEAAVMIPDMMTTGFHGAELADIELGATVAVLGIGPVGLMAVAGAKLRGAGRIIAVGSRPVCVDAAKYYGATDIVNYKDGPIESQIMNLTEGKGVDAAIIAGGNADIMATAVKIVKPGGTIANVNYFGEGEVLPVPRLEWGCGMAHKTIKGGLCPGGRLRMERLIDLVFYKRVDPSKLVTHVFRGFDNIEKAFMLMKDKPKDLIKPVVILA
# [2] = target: T2, heat treated T. brockii extract (Thermoanaerobacter brockii, UniProt P14941); test: Reduction of 2-pentanone by heat treated extract with NADPH regenerating system (gas chromatographic analysis); assay type: biochemical, Thermoanaerobium brockii; details: 3 g in 150 ml; 0.2 v/v isopropanol, 0.3 mM NADP; 40 hr. at 37° C.
# T2 construct: made in house; host or cells: T. brockii itself (native host; heat treated crude extract)
# T2 sequence (P14941 1-352): T1 sequence (P14941 1-352)
# Description: As illustrated in the following reaction diagram, an NADPH regenerating system can be initiated with isopropanol as the electron donor for the reduction of 2-pentanone. [drawing 1] A 150 ml solution was prepared containing 50 mM Tris-HCl (pH 7.8), 0.2 v/v isopropanol, 2 mM dithiothreitol, 0.3 mM NADP and 3 g 2-pentanone. After the solution was degassed with N2, sufficient heat treated T. brockii extract was added to yield an activity of 1 U/min./ml. The solution was incubated in a stoppered vessel for 40 hr. at 37° C. Gas chromatographic analysis indicated a 90% conversion of 2-pentanone to the corresponding alcohol. The mixture was extracted with diethyl ether and then fractionally distilled. The fractions were analyzed by conventional gas chromatographic and NMR (nuclear magnetic resonance) methods. The pure 2-pentanol fraction yielded a dextrorotatory optical rotation which corresponded to that of a highly optically enriched compound. The result in optical purity was dependent on incubation temperature and initial rate of isopropanol to 2-pentanone. Decreasing the temperature from 37° C. to 25° C. and the 2-pentanone concentration from 3 grams/150 ml to 0.6 grams/150 ml, increases the d/l bar ratio from 6/l to 9/l for the resulting 2-pentanol.
structure (smiles),measurement,setting,value
"CCCC(C)=O [CH3 COCH2 CH2 CH3, 2-pentanone]",Activity V/mg. at 60° C.,[1],4.2 μ Mole/Min./Mg Protein
same,Conversion to the corresponding alcohol,[2],90%
